Data published in patent EP4458358A1, “PYRIDAZINE COMPOUNDS FOR ANTIFIBROTIC THERAPY” (Tietze Chemical Consulting UG, priority 2023, dated 2024).

Columns and labels:
Format in all cases: cell-based
GM637 = test: ELISA of secreted pro-collagen I alpha 1 (Type I Collagen) from human dermal fibroblasts GM637
Procedure: (§1) Compounds reconstitution and stock solution: Prior to treatment, DMSO was diluted in PMS until 0,1% DMSO was made. Each compound was solved in 0,1% DMSO (3: 2,5 mg/mL, 1: 2.5 mg/mL, 10: 1 mg/mL, 5: 1mg/mL, 7: 0,6 mg/mL, 16: 1 mg/mL 17: 1 mg/mL, 44: 0,6 mg/mL, 36: 1mg/mL.
(§2) Next the different stock solution with 150 µg and 250 µg of each compound per 1 ml culture solution was made by adding the 0,1% DMSO compound solution in the right amount to culture solution (DMEM with 10% FCS and 1% penicillin-streptomycin).
(§3) Three different cell lines were used for the experiments. GM637 is an immortalized cell line originated from human skin fibroblasts, bought in 2001, UKE1 and […] are cell lines originated from human dermal fibroblasts (dog ear) nurtured from patients, between 60 and 80 years old being completely anonymized at the clinic for dermatology, Rostock.
(§4) The cells lines were thawed and were cultured in Dulbeco's modified Eagel's medium (DMEM, Gibcon, USA) supplemented with 10% fetal bovine serum (FBS, Gibco, Germany) and 1% penicillin-streptomycin (PS, Gibco, USA) at 37 °C in a humidified atmosphere with 5% CO2 until a sufficient number of cells were culture in T75 culture bottles. After reaching a confluence of 80% to 90%, the cells were separated using trypsin and counted. Next 100.000 cells were planted in each well of a 6 well plate in replicates, washed and the DMEM solution with 150 µg and 250 µg/ml substance/DMEM and DMEM with no substance as control was added.
(§5) After 48h and after 72h 100 µl supernatant of each well was taken, labelled and frozen at -20° degree Celsius. Prior to perform ELISA the medium was depending on the cell line diluted 1:50 or 1:100 with PBS, otherwise the concentration of collagen fibers was too high to be measured.
(§6) The media containing the secretion of the different human dermal fibroblasts GM637, UKE1, and HRO159N were collected after 48h and 72h treatment. Secretion of pro-collagen 1 was assessed with human pro-collagen I alpha 1 DuoSet ELISA (R&D systems, USA) To prepare the Elisa plate, Human pro-Collagen I a capture antibody was diluted in ELISA plate-coating buffer at 4µg/mL working concentration. 100 µl of diluted Capture antibody was added to 96-well microplates and incubated over night at room temperature. After three times washing with Wash Buffer, microplates were blocked by adding 300 µl of Reagent Diluent for 1 hour at room temperature. To proceed the ELISA Human pro-collagen I α1 Standards were diluted in Reagent Diluent (range between 31,3 pg/mL - 2000 pg/mL) and 100 µl of standards or conditioned mediums were added to designated wells. Microplates were incubated at room temperature for 2 hours. Human Pro-collagen I α1 Detection Antibody was prepared in Reagent Diluent at […] working concentration and 100 µl of diluted Detection Antibody was applied for 2 hours at room temperature after extensive washing. Then, working solution of Streptavidin-HRP with Reagent Diluent was prepared by diluting 1:40 and added into each well. After 20 minutes at room temperature incubation, microplates were washed and applied with 100 µl of Substrate Solution for 20 minutes followed by Stop Solution after washing. Finally, signals were measured at 450 nm absorbance by PHomo Microplate Reader (Autobio, China) The amount of pro-collagen 1 was quantified by extrapolating the signal into a linear range of a pro-collagen 1 standard curve. Screening compounds were typically tested at concentration of 150 and 250 µg/mL. The dose response data for each compound and the different cell lines were obtained by nonlinear regression analysis using Prism 9 software (GraphPad, La Jolla, USA).

UKE1 = test: ELISA of secreted pro-collagen I alpha 1 (Type I Collagen) from human dermal fibroblasts UKE1
Procedure: as §1, §2, §3, §4, §5, §6

HRO159N = test: ELISA of secreted pro-collagen I alpha 1 (Type I Collagen) from human dermal fibroblasts HRO159N; details: 250 µg
Procedure: as §1, §2, §3, §4, §5, §6

MRCVI = test: ELISA of secreted pro-collagen I alpha 1 (Type I Collagen) from human lung fibroblast MRCVI
Procedure: as §1, §2
As cell line MRCV1 was used, which is an immortalized cell line originated from human lung fibroblast, bought in 2001.
as §4, with “cell line was” for “cells lines were”, “and” for “and were”
as §5
The medium containing the secretion of the human lung fibroblast MRCVI was collected after 48h and 72h treatment. Secretion of pro-collagen 1 was assessed with human pro-collagen I alpha 1 DuoSet ELISA (R&D systems, USA) To prepare the Elisa plate, Human pro-Collagen I a capture antibody was diluted in ELISA plate-coating buffer at 4µg/mL working concentration. 100 µl of diluted Capture antibody was added to 96-well microplates and incubated over night at room temperature. After three times washing with Wash Buffer, microplates were blocked by adding 300 µl of Reagent Diluent for 1 hour at room temperature. To proceed the ELISA Human pro-collagen I α1 Standards were diluted in Reagent Diluent (range between 31,3 pg/mL - 2000 pg/mL) and 100 µl of standards or conditioned mediums were added to designated wells. Microplates were incubated at room temperature for 2 hours. Human Pro-collagen I α1 Detection Antibody was prepared in Reagent Diluent at […] working concentration and 100 µl of diluted Detection Antibody was applied for 2 hours at room temperature after extensive washing. Then, working solution of Streptavidin-HRP with Reagent Diluent was prepared by diluting 1:40 and added into each well. After 20 minutes at room temperature incubation, microplates were washed and applied with 100 µl of Substrate Solution for 20 minutes followed by Stop Solution after washing. Finally, signals were measured at 450 nm absorbance by PHomo Microplate Reader (Autobio, China) The amount of pro-collagen 1 was quantified by extrapolating the signal into a linear range of a pro-collagen 1 standard curve. Screening compounds were typically tested at concentration of 150 and 250 µg/mL. The dose response data for each compound and the different cell lines were obtained by nonlinear regression analysis using Prism 9 software (GraphPad, La Jolla, USA).

**Q.** With `c1nn2nnnc2c2cscc12` [Compound 17, Tetrazolo[1,5-b]thieno[3,4-d]pyridazine] as the compound, how does the “collagen reduction percentage in comparison to the standard (100 %)” value (from here on “collagen reduction percentage … (100 %)”) (GM637; 48h, 150 µg) read?
**A.** 90%

**Q.** What about the “collagen reduction percentage … (100 %)” value (GM637; 48h, 250 µg) of the same compound?
**A.** 62%

**Q.** And the “collagen reduction percentage … (100 %)” value (GM637; 72 h, 150 µg)?
**A.** 103%

**Q.** What about the “collagen reduction percentage … (100 %)” value (GM637; 72 h, 250 µg) of the same compound?
**A.** 55%

**Q.** And the “collagen reduction percentage … (100 %)” value (UKE1; 48h, 150 µg)?
**A.** 102%

**Q.** What about the “collagen reduction percentage … (100 %)” value (UKE1; 48h, 250 µg) of the same compound?
**A.** 86%

**Q.** What about the “collagen reduction percentage … (100 %)” value (UKE1; 72 h, 150 µg) of the same compound?
**A.** 76%

**Q.** What about the “collagen reduction percentage … (100 %)” value (UKE1; 72 h, 250 µg) of the same compound?
**A.** 59%

**Q.** And the “collagen reduction percentage … (100 %)” value (HRO159N; 48h)?
**A.** 34%

**Q.** And the “collagen reduction percentage … (100 %)” value (HRO159N; 72 h)?
**A.** 4%

**Q.** What about the “collagen reduction percentage … (100 %)” value (MRCVI; 48h, 150 µg) of the same compound?
**A.** 33%

**Q.** And the “collagen reduction percentage … (100 %)” value (MRCVI; 48h, 250 µg)?
**A.** 16%

**Q.** And the “collagen reduction percentage … (100 %)” value (MRCVI; 72 h, 150 µg)?
**A.** 35%

**Q.** And the “collagen reduction percentage … (100 %)” value (MRCVI; 72 h, 250 µg)?
**A.** 11%
